From patent US20250099431A1, “GLP-1R MODULATING COMPOUNDS” (priority 2020, published 2025)

Experiments:
GLP-1R = GLP-1R (Homo sapiens (Human), UniProt P43220); test: GLP-1R activation: cAMP increase in CHO cells stably expressing GLP-1R; format: cell-based; conditions: cAMP increase, 10 point dose response, 30 minutes incubation at 37° C., read-out: EC50
Method: GLP-1R activation by a compound of the present disclosure was quantified by measuring cAMP increase in CHO cells stably expressing GLP-1R (MultiSpan product #C1267-1a). […] The cells were then incubated overnight at 37° C., 5% CO2. […] 1% BSA (Rockland Immunochemicals product #BSA-1000)). Following the medium change, the cells were incubated for 1 hour at 37° C., 5% CO2. The tested GLP-1 compound was added to the cells in a 10 point dose response followed by a 30 minutes incubation at 37° C., 5% CO2. cAMP concentration increase was then detected using Cisbio's cAMP Gs Dynamic Kit (product #62AM4PEC) according to the manufacturer's protocol. The response was plotted against the log of the agonist concentration and fitted to a sigmoidal equation to determine the EC50.

[1] = Microsomal stability (liver microsomal assay, mixed cofactors); predicted hepatic clearance; format: in vitro ADME; conditions: liver microsomes 1.0 mg protein/mL (+UDPGA +NADPH), 1 μM analyte, 37° C.; scaled with human liver weight and hepatic blood flow 1.3 L/hr/kg
Method: Metabolic stability of compounds was assessed using human or rat liver microsomal assays (Corning). In these assays, 10 nL of each analyte at a concentration of 1 mM in 100% DMSO was dispensed into a well of a polypropylene plates using the Echo 550 acoustic liquid dispenser (Labcyte®). Each plate contained 384 wells with a single analyte in each well.
A solution of human (Corning® Gentest™ Human Mixed Pooled Microsomes or rat (Corning® Gentest™ Rat [Sprague-Dawley] Pooled Liver Microsomes) liver microsomes at 2 mg/ml in 100 mM K2HPO4/KH2PO4 at pH 7. 4 was combined with alamethicin from Trichoderma viride (Sigma-Aldrich) 0.0225 mg/ml. The mixture was incubated on ice for 15 minutes. 5 μL of this mixture was added to individual wells following a 15 minute incubation at room temperature and supplemented with 5 μL NADPH Regenerating Solution of cofactors (Corning® Gentest™ UGT Reaction Mix) containing 100 mM K2HPO4/KH2PO4 at pH 7.4, 2.6 mM NADP+, 6.6 mM glucose-6-phosphate, 6.6 mM MgCl2, 0.8 U/mL glucose-6-phosphate dehydrogenase, 0.1 mM sodium citrate, and 6.8 mM uridine diphosphate-glucuronic acid. The final concentration of each analyte compound at the beginning of the reaction was 1 μM. The reactions were incubated at 37° C. and samples were collected at time points of 0, 5, 15, 30, 40, 50, 60, and 70 minutes for further analysis. Background data were collected using reactions without analyte compounds.
Upon collection of the sample time points, samples were quenched with 30 μL of a solution of 72% acetonitrile, 8% methanol, 0.1% formic acid, 19.9% water, and internal standard (IS). Reaction plates were spun in a centrifuge at speed of 4,000 rcf for 30 minutes at 4° C., following a dilution of the 10 μL quenched reaction into 40 μL de-ionized water, yielding assay plates.
Assay plates were analyzed using solid-state extraction coupled with quadrupole time-of-flight mass spectrometer, using Agilent QToF 6530 RapidFire 360 system, with C4 type A solid state cartridges. Analysis was performed in either positive or negative ionization modes. Mobile phases contained 0.1% formic acid in water for loading analytes onto solid state extraction cartridges and 0.1% formic acid in acetonitrile for elution into a mass spectrometer in positive ionization mode, or 0.1% acetic acid in water for loading and 0.1% acetic acid in acetonitrile for extraction in negative ionization mode. Peak-area ratios of integrated counts for individual compounds to IS were plotted as semi-logarithmic chart of log vs time. The initial linear portion of decay was fitted to a linear regression equation to derive the half-time of analyte decay.
Pharmacological parameters for an analyte compound metabolism were calculated using the following equations: […]
wherein concentration refers to the protein concentration (mg/ml) in the reaction.
This scales the in vitro intrinsic clearance up to the value that would be predicted for the entire mass of liver tissue (but with no restriction by blood flow). The value depends upon the size of the liver (species-dependent) and the yield of microsomal protein as appropriate (assumed to be species-independent).
Hepatic clearance will depend upon the inter-relationship of intrinsic clearance and hepatic blood flow and was predicted from in vitro data using a variety of approaches.
The hepatic extraction is reported as the predicted clearance expressed as a proportion of hepatic blood flow.

Chain of GLP-1R (P43220 24-463): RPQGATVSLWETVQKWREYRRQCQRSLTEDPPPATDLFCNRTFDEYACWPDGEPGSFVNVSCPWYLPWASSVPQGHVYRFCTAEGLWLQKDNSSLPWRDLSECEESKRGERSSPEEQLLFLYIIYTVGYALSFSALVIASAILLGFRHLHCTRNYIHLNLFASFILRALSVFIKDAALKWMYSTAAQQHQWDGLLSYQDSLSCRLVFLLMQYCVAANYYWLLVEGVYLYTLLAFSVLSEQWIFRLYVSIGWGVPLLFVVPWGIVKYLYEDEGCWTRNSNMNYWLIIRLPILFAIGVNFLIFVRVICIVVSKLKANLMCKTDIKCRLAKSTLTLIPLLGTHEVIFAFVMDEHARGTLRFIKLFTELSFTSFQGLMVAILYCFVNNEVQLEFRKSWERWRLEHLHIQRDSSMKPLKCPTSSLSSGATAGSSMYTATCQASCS

SMILES	EC50 (GLP-1R)	Predicted Hepatic Clearance (Pred. Cl.) [1]
COCCn1c(Cc2c(F)cc(-c3cccc4c3OC3(c5ccc(Cl)cc5)CCCN43)cc2F)nc2ccc(C(=O)O)cc21 (stereo not shown) [Example 16, 2-(4-(3a-(4-chlorophenyl)-1,2,3,3a-tetrahydrobenzo[d]pyrrolo[2,1-b]oxazol-5-yl)-2,6-difluorobenzyl)-1-(2-methoxyethyl)-1H-benzo[d]imidazole-6-carboxylic acid]	6.92 µM	0.54 L/h/kg
CC1(c2ccc(Cl)cc2F)Oc2cccc(-c3ccc(Cc4nc5ccc(C(=O)O)cc5n4Cc4ccon4)c(F)c3)c2O1 (stereo not shown) [Example 107, 2-(4-(2-(4-chloro-2-fluorophenyl)-2-methylbenzo[d][1, 3]dioxol-4-yl)-2-fluorobenzyl)-1-(isoxazol-3-ylmethyl)-3a,7a-dihydro-1H-benzo[d]imidazole-6-carboxylic acid]	0.0019 µM	0.26 L/h/kg
COCCn1c(Cc2c(F)cc(-c3cccc4c3OC(C)(c3ccc(C#N)cc3F)O4)c(F)c2F)nc2ccc(C(=O)O)cc21 (stereo not shown) [Example 88, 2-(4-(2-(4-cyano-2-fluorophenyl)-2-methylbenzo[d][1, 3]dioxol-4-yl)-2,3,6-trifluorobenzyl)-1-(2-methoxyethyl)-1H-benzo[d]imidazole-6-carboxylic acid]	0.012 µM	0.48 L/h/kg
CC1(c2ccc(Cl)cc2F)Oc2cccc(-c3ccc(Cc4nc5ccc(C(=O)O)cc5n4CC4(n5ccnn5)CC4)c(F)c3)c2O1 (stereo not shown) [Example 51, 1-((1-(1H-1,2,3-triazol-1-yl)cyclopropyl)methyl)-2-(4-(2-(4-chloro-2-fluorophenyl)-2-methylbenzo[d][1, 3]dioxol-4-yl)-2-fluorobenzyl)-1H-benzo[d]imidazole-6-carboxylic acid]	–	0.15 L/h/kg
CC1(c2ccc(Cl)cc2F)Oc2cccc(-c3cc(F)c(Cc4nc5ccc(C(=O)O)cc5n4CCS(C)(=O)=O)c(F)c3)c2O1 (stereo not shown) [Example 82, 2-[[4-[2-(4-chloro-2-fluoro-phenyl)-2-methyl-1,3-benzodioxol-4-yl]-2,6-difluoro-phenyl]methyl]-3-(2-methylsulfonylethyl) benzimidazole-5-carboxylic acid]	0.02 µM	–
COCCn1c(Cc2cc(-c3cccc4c3OC(C)(c3ccc(Cl)cc3F)O4)cs2)nc2ccc(C(=O)O)cc21 (stereo not shown) [Example 59, 2-((4-(2-(4-chloro-2-fluorophenyl)-2-methylbenzo[d][1, 3]dioxol-4-yl)thiophen-2-yl)methyl)-1-(2-methoxyethyl)-1H-benzo[d]imidazole-6-carboxylic acid]	1.62 µM	–

Further lines, results first:

EC50 (GLP-1R)	Predicted Hepatic Clearance (Pred. Cl.) [1]	SMILES
0.067 µM	0.21 L/h/kg	COCCn1c(Cc2c(F)cc(-c3cccc4c3OC(C)(c3ccc(C#N)cc3F)O4)cc2F)nc2ccc(C(=O)O)cc21 (single isomer, unassigned) [Example 98, 2-(4-(2-(4-cyano-2-fluorophenyl)-2-methylbenzo[d][1, 3]dioxol-4-yl)-2,6-difluorobenzyl)-1-(2-methoxyethyl)-1H-benzo[d]imidazole-6-carboxylic acid]
–	0.46 L/h/kg	COCCn1c(Cc2cc(F)c(-c3cccc4c3OC(C)(c3ccc(Cl)cn3)O4)cc2F)nc2ccc(C(=O)O)cc21 (stereo not shown) [Example 114, 2-[[4-[2-(5-chloro-2-pyridyl)-2-methyl-1,3-benzodioxol-4-yl]-2,5-difluoro-phenyl]methyl]-3-(2-methoxyethyl) benzimidazole-5-carboxylic acid]
–	0.35 L/h/kg	COCCn1c(Cc2cc(F)c(-c3cccc4c3OC(C)(c3ccc(Cl)cc3F)O4)cc2F)nc2ccc(C(=O)O)cc21 (stereo not shown) [Example 113, 2-[[4-[2-(4-chloro-2-fluoro-phenyl)-2-methyl-1,3-benzodioxol-4-yl]-2,5-difluoro-phenyl]methyl]-3-(2-methoxyethyl) benzimidazole-5-carboxylic acid]
